Results from patent publication US20260325533A1, “CDK INHIBITOR COMPOUNDS” (ALEKSIA THERAPEUTICS, INC., priority 2023, published 2026).
Like-named read-outs stand apart in the source and are kept apart here.

What was measured:
Assay type in all cases: biochemical
[1] = molecular target: CDK6/CCND1 (Homo sapiens, UniProt Q00534); assay: CDK6 homogeneous time-resolved fluorescence (HTRF) kinase assay; details: CDK6/CCND
Procedure, shortened: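 1 nM enzyme, 1 mM ATP, 50 nM ULight-4E-BP1 (Thr37/46) peptide, 1% DMSO; 20 min compound preincubation, 60 min reaction, 23 °C. EDTA stop, 2 nM Eu-anti-phospho-4E-BP1 antibody 60 min. TR-FRET 665 nm (or 665/615 ratio); IC50 from 11-point half-log titration, top 10 μM.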

[2] = molecular target: CDK4/CCND3 (Homo sapiens, UniProt P11802); assay: CDK4 homogeneous time-resolved fluorescence (HTRF) kinase assay; details: CDK4/CCND
Procedure, shortened: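 Compounds were preincubated with 1.5 nM CDK4/CCND3 for 20 min at 23 °C in HEPES buffer (pH not given), then reacted 60 min with 1 mM ATP and 50 nM ULight-4E-BP1 (Thr37/46) peptide. EDTA stop, Eu-anti-phospho-4E-BP1 detection; 665/615 nm ratio; IC50 from 11-point half-log titrations from 10 μM.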

[3] = molecular target: CDK1/CCNB1 (Homo sapiens, UniProt P06493); assay: CDK1 homogeneous time-resolved fluorescence (HTRF) kinase assay; details: CDK1/CCNB; x = IC50 >250 nM; read-out: CDK1/CCNB IC50 (>250 nM column)
Procedure, shortened: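 High-ATP (1 mM) HTRF assay with 0.5 nM CDK1/cyclin B1 and 50 nM ULight-4E-BP1 (Thr37/46) substrate, 60 min at 23 °C after 20-min compound preincubation. IC50 values come from dose-response curves.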

[4] = molecular target: CDK2/CCNE1 (Homo sapiens, UniProt P24941); assay: CDK2 homogeneous time-resolved fluorescence (HTRF) kinase assay; details: CDK2/CCNE
Procedure, shortened: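 Compounds were titrated 11-point, half-log from typically 10 μM against 3 nM CDK2/cyclin E1 at 1 mM ATP, with a 20 min enzyme preincubation. Phosphorylation of 50 nM ULight-4E-BP1 peptide over 60 min at 23 °C was detected by europium anti-phospho antibody TR-FRET.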

[5] = x = IC50 >250 nM, read-out: CDK6/CCND IC50 (>250 nM column)
[6] = x = IC50 >250 nM, read-out: CDK4/CCND IC50 (>250 nM column)
[7] = x = IC50 25-250 nM, read-out: CDK2/CCNE IC50 (25-250 nM)
[8] = x = IC50 <25 nM, read-out: CDK2/CCNE IC50 (<25 nM)

CDK4/CCND3, sequence (P11802 whole entry): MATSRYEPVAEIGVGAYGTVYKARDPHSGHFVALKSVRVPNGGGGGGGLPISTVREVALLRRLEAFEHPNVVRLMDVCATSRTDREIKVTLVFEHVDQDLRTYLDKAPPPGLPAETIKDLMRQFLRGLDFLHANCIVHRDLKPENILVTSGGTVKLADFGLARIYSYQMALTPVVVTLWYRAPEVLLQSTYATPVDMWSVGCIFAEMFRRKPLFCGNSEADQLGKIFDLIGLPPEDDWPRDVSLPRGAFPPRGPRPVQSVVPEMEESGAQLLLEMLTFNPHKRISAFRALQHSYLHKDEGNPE
CDK4/CCND3, sequence (P30281 whole entry partner): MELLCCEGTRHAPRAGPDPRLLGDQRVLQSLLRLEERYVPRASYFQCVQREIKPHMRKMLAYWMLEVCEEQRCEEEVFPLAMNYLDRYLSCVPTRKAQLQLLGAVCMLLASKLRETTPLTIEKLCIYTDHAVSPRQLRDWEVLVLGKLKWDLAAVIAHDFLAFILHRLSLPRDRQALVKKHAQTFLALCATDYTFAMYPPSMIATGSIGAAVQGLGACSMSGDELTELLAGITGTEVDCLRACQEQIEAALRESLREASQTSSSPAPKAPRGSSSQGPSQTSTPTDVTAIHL
CDK6/CCND1, sequence (Q00534 whole entry): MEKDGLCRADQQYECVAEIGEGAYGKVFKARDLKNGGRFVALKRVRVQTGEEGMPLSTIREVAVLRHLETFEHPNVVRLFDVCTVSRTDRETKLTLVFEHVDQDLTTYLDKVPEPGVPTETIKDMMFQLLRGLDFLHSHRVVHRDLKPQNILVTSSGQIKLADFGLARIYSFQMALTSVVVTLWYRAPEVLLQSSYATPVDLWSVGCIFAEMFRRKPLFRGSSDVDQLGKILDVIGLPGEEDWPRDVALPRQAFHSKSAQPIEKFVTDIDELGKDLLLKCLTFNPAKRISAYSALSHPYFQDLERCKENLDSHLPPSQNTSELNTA
CDK6/CCND1, sequence (P24385 whole entry partner): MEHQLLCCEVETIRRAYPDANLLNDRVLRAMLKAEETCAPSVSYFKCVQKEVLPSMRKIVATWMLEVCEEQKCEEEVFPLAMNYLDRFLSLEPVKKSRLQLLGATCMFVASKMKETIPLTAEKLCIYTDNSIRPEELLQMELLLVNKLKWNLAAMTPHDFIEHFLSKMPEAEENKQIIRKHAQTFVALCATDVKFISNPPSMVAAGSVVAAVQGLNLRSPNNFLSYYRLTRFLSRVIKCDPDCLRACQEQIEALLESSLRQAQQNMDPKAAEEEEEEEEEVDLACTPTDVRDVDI
CDK1/CCNB1, sequence (P06493 whole entry): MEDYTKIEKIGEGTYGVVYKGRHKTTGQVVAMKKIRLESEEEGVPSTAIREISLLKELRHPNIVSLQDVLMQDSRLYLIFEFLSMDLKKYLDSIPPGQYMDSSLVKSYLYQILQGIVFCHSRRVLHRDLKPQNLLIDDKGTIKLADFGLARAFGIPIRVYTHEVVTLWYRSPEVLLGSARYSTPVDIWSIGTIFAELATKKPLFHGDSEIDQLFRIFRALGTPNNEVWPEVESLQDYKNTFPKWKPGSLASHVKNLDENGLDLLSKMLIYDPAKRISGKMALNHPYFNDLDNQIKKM
CDK1/CCNB1, sequence (P14635 whole entry partner): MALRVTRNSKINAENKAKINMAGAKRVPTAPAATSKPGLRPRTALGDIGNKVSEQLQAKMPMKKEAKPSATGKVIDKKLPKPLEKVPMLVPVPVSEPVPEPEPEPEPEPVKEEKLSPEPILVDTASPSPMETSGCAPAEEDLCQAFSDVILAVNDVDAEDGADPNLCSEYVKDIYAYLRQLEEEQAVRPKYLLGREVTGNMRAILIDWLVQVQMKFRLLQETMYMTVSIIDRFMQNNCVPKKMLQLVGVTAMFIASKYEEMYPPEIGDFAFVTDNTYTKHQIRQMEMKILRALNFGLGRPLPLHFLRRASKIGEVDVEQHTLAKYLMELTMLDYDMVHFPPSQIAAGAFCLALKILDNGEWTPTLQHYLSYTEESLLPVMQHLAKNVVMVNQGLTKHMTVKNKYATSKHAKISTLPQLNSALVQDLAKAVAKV

SMILES | IC50 [1, 5] [nM] | IC50 [2, 6] [nM] | IC50 [3] [nM] | IC50 [4, 7] [nM] | IC50 ([1]; x = IC50 25-250 nM, read-out: CDK6/CCND IC50 (25-250 nM)) [nM] | IC50 ([2]; x = IC50 25-250 nM, read-out: CDK4/CCND IC50 (25-250 nM)) [nM] | IC50 [4, 8] [nM]
CS(=O)(=O)c1ccc(Nc2cc3c(C#Cc4cc(Cl)n[nH]c4=O)nccc3cn2)cc1 [Ex 612, 6-chloro-4-((7-((4-(methylsulfonyl)phenyl)amino)-2,6-naphthyridin-1-yl)ethynyl)pyridazin-3(2H)-one] | > 250 | > 250 | > 250 | 25 to 250 | – | – | –
CS(=O)(=O)c1ccc(Nc2cc3c(C#Cc4cnc(N)nn4)nccc3cn2)cc1 [Ex 613, 5-((3-amino-1,2,4-triazin-6-yl)ethynyl)-N-(4-(methylsulfonyl)phenyl)-2,6-naphthyridin-3-amine] | > 250 | > 250 | > 250 | 25 to 250 | – | – | –
Cc1c(-c2nccc3cnc(Nc4ccc(S(C)(=O)=O)c(O)c4)cc23)ccc2c1cnn2CCO [Ex 616, 5-((5-(1-(2-hydroxyethyl)-4-methyl-1H-indazol-5-yl)-2,6-naphthyridin-3-yl)amino)-2-(methylsulfonyl)phenol] | – | – | > 250 | – | 25 to 250 | 25 to 250 | < 25
COc1cc(Nc2cc3c(-c4ccc5c(cnn5CCO)c4C)nccc3cn2)ccc1S(C)(=O)=O [Ex 617, 2-(5-(7-((3-methoxy-4-(methylsulfonyl)phenyl)amino)-2,6-naphthyridin-1-yl)-4-methyl-1H-indazol-1-yl)ethan-1-ol] | > 250 | > 250 | > 250 | 25 to 250 | – | – | –
CS(=O)(=O)c1ccc(Nc2cc3c(C#Cc4ccc(=O)[nH]n4)nccc3cn2)cc1 [Ex 618, 6-((7-((4-(methylsulfonyl)phenyl)amino)-2,6-naphthyridin-1-yl)ethynyl)pyridazin-3(2H)-one] | > 250 | > 250 | > 250 | – | – | – | < 25
CS(=O)(=O)c1ccc(Nc2cc3c(C#Cc4ccc(CC#N)cc4)nccc3cn2)cc1 [Ex 620, 2-(4-((7-((4-(methylsulfonyl)phenyl)amino)-2,6-naphthyridin-1-yl)ethynyl)phenyl)acetonitrile] | > 250 | > 250 | > 250 | 25 to 250 | – | – | –
CS(=O)(=O)c1ccc(Nc2cc3c(C#Cc4cccc5cn[nH]c45)nccc3cn2)cc1 [Ex 621, 5-((1H-indazol-7-yl)ethynyl)-N-(4-(methylsulfonyl)phenyl)-2,6-naphthyridin-3-amine] | > 250 | > 250 | > 250 | 25 to 250 | – | – | –
CS(=O)(=O)c1ccc(Nc2cc3c(C#Cc4cnc(N)cn4)nccc3cn2)cc1 [Ex 622, 5-((5-aminopyrazin-2-yl)ethynyl)-N-(4-(methylsulfonyl)phenyl)-2,6-naphthyridin-3-amine] | > 250 | > 250 | > 250 | 25 to 250 | – | – | –
CS(=O)(=O)c1ccc(Nc2cc3c(C#Cc4cccnc4)nccc3cn2)cc1 [Ex 623, N-(4-(methylsulfonyl)phenyl)-5-(pyridin-3-ylethynyl)-2,6-naphthyridin-3-amine] | > 250 | > 250 | > 250 | 25 to 250 | – | – | –
CN1Cc2cc(-c3nccc4cnc(Nc5ccc(S(C)(=O)=O)cc5)cc34)ccc2C1=O [Ex 624, 2-methyl-5-(7-((4-(methylsulfonyl)phenyl)amino)-2,6-naphthyridin-1-yl)isoindolin-1-one] | > 250 | > 250 | > 250 | 25 to 250 | – | – | –
CS(=O)(=O)c1ccc(Nc2cc3c(C#Cc4ccc(O)cn4)nccc3cn2)cc1 [Ex 627, 6-((7-((4-(methylsulfonyl)phenyl)amino)-2,6-naphthyridin-1-yl)ethynyl)pyridin-3-ol] | > 250 | > 250 | > 250 | 25 to 250 | – | – | –
CC(=O)Nc1ccc(C#Cc2nccc3cnc(Nc4ccc(S(C)(=O)=O)cc4)cc23)cc1 [Ex 631, N-(4-((7-((4-(methylsulfonyl)phenyl)amino)-2,6-naphthyridin-1-yl)ethynyl)phenyl)acetamide] | > 250 | > 250 | > 250 | – | – | – | < 25
